Article PMC5428058, “Local delivery of novel MRTF/SRF inhibitors prevents scar tissue formation in a preclinical model of fibrosis” (Scientific Reports, 2017)

Assays:
[1] = tested on: New Zealand white rabbits; assay: local and systemic toxicity after glaucoma filtration surgery; format: in vivo; conditions: rabbit
Experimental: (§1) The animals were evaluated twice weekly by a single-masked researcher. Bleb width and length were measured using calipers and intraocular pressures (IOP) were measured using a tonovet (Icare). The primary efficacy end-point was bleb survival as this is indicative of the long-term opening of the filtration pathway created during surgery. Bleb failure was defined as the appearance of a flat, scarred, and vascularised bleb associated with a deep anterior chamber. IOP survival, defined as when the intraocular pressure remains below the baseline IOP measurement, and bleb area were used as secondary end-points. Conjunctival vascularity was graded on a scale of 0 to 3 (0: avascular, 1: normal, 2: hyperaemic, 3: very hyperaemic).
For the Ki67 staining, the sections were dewaxed, rehydrated, and microwaved for 15 minutes in sodium citrate buffer (pH 6) for antigen retrieval. After incubating in 1.6% hydrogen peroxide followed by 10% normal horse serum, the sections were incubated in mouse anti-Ki67 (M7248, Dako) diluted 1 in 25 in 1% BSA/PBS for 1 hour at room temperature. The sections were then incubated in biotinylated horse anti-mouse IgG (Vector) and Avidin-Biotin complex (Vector), developed in DAB (Vector), and counterstained in haematoxylin.
All animals were carefully evaluated for any signs of ocular or systemic toxicity during the study. At day 30, 100 µl of aqueous, 1 ml of vitreous, and 1 ml of venous blood were sampled on the rabbit eyes receiving CCG-222740 or CCG-203971 or vehicle control. The venous blood samples were left to clot for 30 minutes at room temperature, spun at 4000 rpm for 15 minutes at 4 °C, and the serum was collected as the supernatant. Samples were extracted in acetonitrile and the levels of CCG-222740 and CCG-203971 were measured in the aqueous, vitreous, and serum using liquid chromatography/mass spectrometry (LC/MS) in the Metabolomics Core at Michigan State University (East Lansing, MI).

[2] = tested on: New Zealand white rabbits; assay: rabbit glaucoma filtration surgery model of scar tissue formation, clinical end-points; format: in vivo
Description: 24 female New Zealand white rabbits (2–2.4 kg, 12—14 weeks, Highgate, UK) underwent experimental glaucoma filtration surgery to the left eye under general anaesthesia, [28]. A superonasal fornix-based conjunctival flap was raised behind the limbus and a micro-vitreoretinal blade (20 gauge, 0.90 mm, Surgistar USA) was used to make a partial thickness scleral tunnel to the corneal stroma. A 22 gauge, 25 mm intravenous cannula was passed through the tunnel and the needle was removed once it was visible in the cornea. The cannula was advanced into the mid-pupillary area, trimmed at its scleral edge and fixed to the scleral surface using a 10–0 nylon suture (Alcon, USA). The conjunctival incision was closed using two interrupted 10–0 nylon sutures. In a randomised, prospective, single-masked observer study, the rabbits received either intraoperative 0.2 mg/ml mitomycin-C (MMC) [N = 6], or postoperative subconjunctival injections (100 μl) of 100 μM CCG-203971 [N = 6] or 100 μM CCG-222740 [N = 6] or vehicle control [N = 6] daily for the first nine days followed by twice weekly for three weeks, [33]. CCG-222740 and CCG-203971 were dissolved in 100% DMSO (Sigma, UK) at 10 mM and then diluted to 100 μM with sterile PBS. The same volume of DMSO was diluted with PBS for the vehicle control. For the MMC-treated group, a small corneal light shield sponge was soaked in 1 ml of 0.2 mg/ml MMC and applied over the conjunctiva for 3 minutes, and the area was then thoroughly washed with 50 ml of physiologic balanced salt solution (Alcon Laboratories, Inc., Fort Worth, TX). All the postoperative subconjunctival injections were given at the same site by a single-masked researcher.
as §1

CO[C@@]12[C@H](COC(N)=O)C3=C(C(=O)C(C)=C(N)C3=O)N1C[C@@H]1N[C@@H]12 [MMC, mitomycin-C, reference compound] was tested, and the “Ki67 positive cells in the conjunctival epithelium” value ([1]; day 30) was “markedly reduced the number of Ki67 positive cells”, the conjunctival vascularity ([1]; in vivo) was “thin avascular blebs” and the “local toxicity, conjunctival epithelium” value ([1]; in vivo) was “caused disruption of the epithelial cell layer”. For the same compound, the “bleb area compared to vehicle control” value [2] was “significantly larger”, the “mean day of bleb failure” value ([2]; CCG compounds 100 μM subconjunctival, MMC 0.2 mg/ml intraoperative, vehicle 14 days) was 28.8 days and the “intraocular pressure (IOP)” value ([2]; versus vehicle control or baseline) was “significantly lower”.
